Results: patent US7994192B2, “Substituted thienopyridone compounds with antibacterial activity” (Crestone, Inc., priority 2006, dated 2011)

Key:
C. difficile [1] = assay: C. difficile-infected hamster survival study; assay type: in vivo
Procedure: Animal studies were performed to determine the efficacy of MetRS inhibitors for treating C. difficile-infections. The MetRS inhibitors tested were 5-[3-((R)-6,8-Dibromo-chroman-4-ylamino)-propylamino]-4H-thieno[3,2-b]pyridine-7-one (both racemic mixture and the R enantiomer) and 5-[3-((R)-8-Bromo-6-chloro-chroman-4-ylamino)-propylamino]-4H-thieno[3,2-b]pyridin-7-one. Also tested was 2-(3-{3,5-Dibromo-2-[2-(4-methyl-thiazol-5-yl)-ethoxy]-benzylamino}-propylamino)-1H-quinolin-4-one.
Results were compared to C. difficile-infected hamsters treated with the conventional antibiotic, vancomycin. Infected hamsters were treated with either a solution or suspension of a MetRS inhibitor at 5 to 50 mg/kg or vancomycin at 2.5, 5 or 25 mg/kg. There were eight hamsters per group with the final endpoint of the experiment being survival. Expired hamsters were examined for GI condition.

C. difficile [2] = assay: Sporulation of C. difficile clinical isolates on agar containing compound; assay type: cell-based

Structure (SMILES): O=c1cc(NCCCN[C@@H]2CCOc3c(Br)cc(Br)cc32)[nH]c2ccsc12 [5-[3-((R)-6,8-Dibromo-chroman-4-ylamino)-propylamino]-4H-thieno[3,2-b]pyridine-7-one]
- survival on Day 28 (C. difficile [1]; 5 mg/kg BID): > 60%
- efficacy ranking among the MetRS inhibitors tested (C. difficile [1]; hamster, in vivo): best efficacy
- spores (share of total cells) (C. difficile [2]; 0.25×MIC, 96 hours, all strains): < 2%
- spores (share of total cells) (C. difficile [2]; 0.5×MIC, 96 hours, all strains): < 1%

Structure (SMILES): Cc1ncc([N+](=O)[O-])n1CCO [metronidazole, reference compound]
- spores (share of total cells) (C. difficile [2]; subMIC concentrations, all tested strains): up to 100%

Structure (SMILES): CN[C@H](CC(C)C)C(=O)N[C@H]1C(=O)N[C@@H](CC(N)=O)C(=O)N[C@H]2C(=O)N[C@H]3C(=O)N[C@H](C(=O)N[C@H](C(=O)O)c4cc(O)cc(O)c4-c4cc3ccc4O)[C@H](O)c3ccc(c(Cl)c3)Oc3cc2cc(c3O[C@@H]2O[C@H](CO)[C@@H](O)[C@H](O)[C@H]2O[C@H]2C[C@](C)(N)[C@H](O)[C@H](C)O2)Oc2ccc(cc2Cl)[C@H]1O [vancomycin, reference compound]
- survival on Day 28 (C. difficile [1]; vancomycin treatment, dose not given in the sentence (2.5, 5 or 25 mg/kg used)): 0-10%
